Test results from patent publication US12187758B2 (ROME Therapeutics, Inc., priority 2022, dated 2025).

What was measured:
[1] = tested on: THP1-Dual KO-TREX1 xenograft tumors; assay: Altering IFN production in THP1 TREX1 KO xenografts; format: in vivo, CB-17 SCID female mice; conditions: decitabine 5 mg/kg IP, test compound 10, 30, or 100 mg/kg PO once daily for 4 days; tumors 24 h post-last dose; FIG. 6
Method: Exemplary compounds 2, 25 and 40 were tested for their ability to alter IFN levels in THP1-Dual™ KO-TREX1 xenografts in mice. Assay procedures are described below.
CB-17 SCID female mice were inoculated subcutaneously with 10 million THP1-Dual™ KO-TREX1 cells in 200 μl PBS with Matrigel (1:1) and grouped when tumor volume reached 350-400 mm^3. Mice bearing THP1-Dual™ KO-TREX1 xenograft tumors were then separated into 5 groups. Three groups were administered: (1) decitabine (DAC) at 5 mg/kg IP, once daily, for 4 days, and (2) test compound at 10, 30, or 100 mg/kg, PO, once daily, for 4 days. One group was administered decitabine (DAC) at 5 mg/kg IP, once daily, for 4 days, and the test compound vehicle control. The final group was administered the vehicle control from both the test compound and the vehicle control from decitabine. Decitabine is formulated in sterile PBS, pH 7.4, and Compound 2, 25, and 40 were formulated in 20% PEG400 in PBS.
Tumors were harvested 24 h post-last dose administered on day 4, ground in PBS at 50 Hz for 5 min, and kept on ice for 30 min while being vortexed every 5 min. […] Equal amounts of proteins were added to 96-well black plates, and luciferase signal was measured using the QUANTI-Luc™ detection medium according to manufacturer's instructions. Luminescence was measured using the EnVision® 2105 Multimode Plate Reader. […]

[2] = tested on: interferon-stimulated gene (ISG) response; assay: B6/JGpt-Trex1em1Cd1194/Gpt mouse model (ISG score); format: in vivo; conditions: B6/JGpt-Trex1em1Cd1194/Gpt mice, 100 mg/kg p.o. daily for 5 days
Method: Exemplary compounds were tested for the ability to alter the interferon-stimulated gene (ISG) response in a B6/JGpt-Trex1em1Cd1194/Gpt mouse model. Assay procedures and results are described below.
Nine 8-10 week old B6/JGpt-Trex1em1Cd1194/Gpt mice were acclimated to the lab for at least 5 days. Compound 2 was prepared daily in a 20% PEG400 (pH 3.5) solution for p.o. administration. Compound 2 was administered for 5 days.
(§1) Compound 2 was administered daily from Day 1 to Day 5. All mice were euthanized 1 hour after the last dose administration on Day 5. Heart and skin were harvested and snap frozen in liquid nitrogen, and plasma (EDTA) was collected for bioanalysis. Total RNA was isolated and ISG score for each sample was determined as in Part IIIa of Example 108.
Fifteen 6-8 week old B6/JGpt-Trex1em1Cd1194/Gpt mice were acclimated to the lab for at least 5 days. Compound 67 was prepared daily in a 20% PEG400 (pH 3.5) solution for p.o. administration. […] was administered for 5 days.
as §1, with “67” for “2”

[3] = tested on: THP1-Dual KO-TREX1 xenograft tumors; assay: Altering IFN production in THP1-Dual KO-TREX1 mouse xenografts (Compound 67); format: in vivo, CB-17 SCID female mice; conditions: decitabine 5 mg/kg SC, compound 0.3-100 mg/kg PO once daily for 5 days; tumors 4 h post-last dose; FIG. 9
Method: Exemplary Compound 67 was tested for its ability to alter IFN levels in THP1-Dual™ KO-TREX1 xenografts in mice. Assay procedures are described below.
CB-17 SCID female mice were inoculated subcutaneously with 10 million THP1-Dual™ KO-TREX1 cells in 200 μl PBS with Matrigel (1:1) and grouped at N=5 per treatment per sampling timepoint when tumor volume reached an average of 340 mm^3. Six groups were co-administered: (1) decitabine (DAC) at 5 mg/kg SC, once daily, for 5 days, and (2) test compound 67 at one of six doses (0.3 mg/kg PO, 1 mg/kg PO, 3 mg/kg PO, 10 mg/kg PO, 30 mg/kg PO, 100 mg/kg PO) once daily, for 5 days. Two additional groups were administered (1) decitabine and test compound vehicle control SC+PO, once daily, for 5 days, and (2) decitabine at 5 mg/kg SC, once daily, for 5 days. […]
Tumors were harvested 4 h post-last dose administered on day 5, grinded in PBS at 50 Hz for 5 min, kept on ice for 30 min while being vortexed every 5 min. […] Equal amounts of proteins were added to 96-well black plates, and luciferase signal was measured using the QUANTI-Luc™ detection medium according to manufacturer's instructions. Luminescence was measured using the EnVision® 2105 Multimode Plate Reader.
Experimental results are depicted in FIG. 9. […] In FIG. 9, IFN signal was measured in tumors harvested from mice 4 hours after the final decitabine and test compound dosing on day 5.

Compound	inhibition of DAC-induced IFN signal in THP1 tumors [1]	ISG score in the heart and skin [2]	inhibition of DAC-induced IFN signal in THP1 tumors [3]
Nc1ccn([C@H]2C[C@H](O)[C@](CO)(CCl)O2)c(=O)n1 [Compound 2, 4-amino-1-((2R,4S,5R)-5-(chloromethyl)-4-hydroxy-5-(hydroxymethyl)tetrahydrofuran-2-yl)pyrimidin-2(1H)-one]	potent inhibition of DAC-induced IFN signal	lowers the ISG score	
Nc1ccn([C@@H]2O[C@@](CO)(CCl)[C@@H](O)[C@@H]2F)c(=O)n1 [Compound 40, 4-amino-1-((2R,3S,4R,5R)-5-(chloromethyl)-3-fluoro-4-hydroxy-5-(hydroxymethyl)tetrahydrofuran-2-yl)pyrimidin-2(1H)-one]	potent inhibition of DAC-induced IFN signal		
Nc1nc(=O)n([C@@H]2O[C@@](CO)(CCl)[C@@H](O)[C@@H]2F)cc1F [Compound 67, 4-amino-1-[(2R,3S,4R,5R)-5-(chloromethyl)-3-fluoro-4-hydroxy-5-(hydroxymethyl)oxolan-2-yl]-5-fluoropyrimidin-2-one]		lowers the ISG score	dose-response inhibition of DAC-induced IFN signal
